Measurements published in patent US20080003244A1, “Inflammation and Oxidative Stress Reducing Compostion for Topical or Oral Administration” (priority 2006, published 2008).
Several values for one entry are separate records, joined by “and”; a condition that tells them apart may be missing. Equal entries are not always repeated.

Tested on: A549 human lung epithelial cells
Assay: H2O2 oxidative stress protection, live cell count (trypan blue dye exclusion)
Format: cell-based
Conditions: for Live cell Number: 4 hours, A549
Protocol: A549 human lung epithelial cells were seeded and treated with 2.5 mM H202 with or without lipid for 4 hours. Cells were washed and trypsinized and live cells were counted. Test Sample Composition—The extract product titled LP 0817, example 1, was mixed with water at a 30% concentration yielding a compostion of Lipid Extract 23%, Lipoic Acid 7%, Water 70%. Lipid extract (produced by alcohol extraction process cited in example 1 without lipoic acid component)—23% lipids/77% water and lipoic acid at 7% concentration tested separately. 210 mg lipoic acid was dissolved with 2.8 ml. DMSO. (93% DMSO and 7% Lipoic Acid.) This is 100% solution. This working solution was diluted to 5%, 2%, 1% to use for hydrogen peroxide study. A549 human lung epithelial cells (1.5×10^5/well in 6 well dish) were seeded and treated with 2.5 mM H202 with or without lipid for 4 hours. Cells were washed and trypsinized and live cells (trypan blue dye exclusion assay) were counted. Cell number is represented as 10^4.

O=C(O)CCCCC1CCSS1 (stereo not shown) [Lipoic Acid 7%, lipoic acid]
Live cell Number (7% lipoic acid in DMSO working solution diluted to 1% + H2O2 (2.5 mM)): 13 10^4 and 14 10^4
Live cell Number (7% lipoic acid in DMSO working solution diluted to 2% + H2O2 (2.5 mM)): 14 10^4
Live cell Number (7% lipoic acid in DMSO working solution diluted to 5% + H2O2 (2.5 mM)): 10 10^4 and 12 10^4
Protection of cells from H2O2 treatment/damage (A549, 2.5 mM H2O2, 4 hours): Neither Lipid extract nor Lipoic acid protected the cells from H202 damage
